Reference: ChEMBL document CHEMBL2062405, “Alkaloids from the root of Isatis indigotica” (J Nat Prod, 2012)
Calls of active or inactive are those of the source. The calls are words filed in the database; no cut-off is given here.

Experiments:
[1] = system: Human immunodeficiency virus 1; test: Antiviral activity against HIV1 infected in 293T cells cotransfected with VSV-G at 10 uM after 48 hrs by ELISA; type: functional, organism-based
Human alphaherpesvirus 1 = test: Antiviral activity against Herpes simplex virus 1 at 10 uM; type: functional, organism-based
A549 = test: Cytotoxicity against human A549 cells at 10 uM after 96 hrs by MTT assay; type: functional, cell-based
BGC-823 = test: Cytotoxicity against human BGC823 cells at 10 uM after 96 hrs by MTT assay; type: functional, cell-based
MCF7 = test: Cytotoxicity against human MCF7 cells at 10 uM after 96 hrs by MTT assay; type: functional, cell-based
Bel-7402 = test: Cytotoxicity against human Bel7402 cells at 10 uM after 96 hrs by MTT assay; type: functional, cell-based
KETR3 = test: Cytotoxicity against human Ketr3 cells at 10 uM after 96 hrs by MTT assay; type: functional, cell-based
HCT-8 = test: Cytotoxicity against human HCT8 cells at 10 uM after 96 hrs by MTT assay; type: functional, cell-based
[2] = Hepatoprotective activity in rat WB-F344 cells assessed as inhibition of DL-Galactosamine-induced toxicity at 10 uM incubated for 1 hr prior to DL-Galactosamine-challenge measured after 24 hrs by MTT assay; type: functional

Compound: NC(=O)C[C@H]1C(=O)Nc2cccc(O)c21
- Activity [1]: inactive
- Activity (Human alphaherpesvirus 1): inactive
- Activity (A549): inactive
- Activity (BGC-823): inactive
- Activity (MCF7): inactive
- Activity (Bel-7402): inactive
- Activity (KETR3): inactive
- Activity (HCT-8): inactive

Compound: Nc1ccccc1C(=O)O[C@@H]1O[C@H](CO)[C@@H](O)[C@H](O)[C@H]1O
- Activity [1]: inactive
- Activity (Human alphaherpesvirus 1): inactive
- Activity (A549): inactive
- Activity (BGC-823): inactive
- Activity (MCF7): inactive
- Activity (Bel-7402): inactive
- Activity (KETR3): inactive
- Activity (HCT-8): inactive

Compound: O=Cc1c[nH]c2ccccc12
- Activity [1]: inactive
- Activity (Human alphaherpesvirus 1): inactive
- Activity (A549): inactive
- Activity (BGC-823): inactive
- Activity (MCF7): inactive
- Activity (Bel-7402): inactive
- Activity (KETR3): inactive
- Activity (HCT-8): inactive

Compound: O=C1c2ccccc2-n2c1nc1ccccc1c2=O
- Activity [1]: inactive
- Activity (Human alphaherpesvirus 1): inactive
- Activity (A549): inactive
- Activity (BGC-823): inactive
- Activity (MCF7): inactive
- Activity (Bel-7402): inactive
- Activity (KETR3): inactive
- Activity (HCT-8): inactive

Compound: COn1cc(CC#N)c2ccccc21
- Activity [1]: inactive
- Activity (Human alphaherpesvirus 1): inactive
- Activity (A549): inactive
- Activity (BGC-823): inactive
- Activity (MCF7): inactive
- Activity (Bel-7402): inactive
- Activity (KETR3): inactive
- Activity (HCT-8): inactive

Compound: N#C/C=C1/C(=O)Nc2cccc(O)c21
- Activity [1]: inactive
- Activity (Human alphaherpesvirus 1): inactive
- Activity (A549): inactive
- Activity (BGC-823): inactive
- Activity (MCF7): inactive
- Activity (Bel-7402): inactive
- Activity (KETR3): inactive
- Activity (HCT-8): inactive

Compound: Oc1ccc2[nH]c(O)cc2c1
- Activity [1]: inactive
- Activity (Human alphaherpesvirus 1): inactive
- Activity (A549): inactive
- Activity (BGC-823): inactive
- Activity (MCF7): inactive
- Activity (Bel-7402): inactive
- Activity (KETR3): inactive
- Activity (HCT-8): inactive

Compound: O=C1Nc2ccccc2/C1=C1/Nc2ccccc2C1=O
- Activity [1]: inactive
- Activity (Human alphaherpesvirus 1): inactive
- Activity (A549): inactive
- Activity (BGC-823): inactive
- Activity (MCF7): inactive
- Activity (Bel-7402): inactive
- Activity (KETR3): inactive
- Activity (HCT-8): inactive

Compound: O=C1C[C@]2(O)c3ccccc3N3C(=O)c4ccccc4N1[C@@H]32
- Activity [1]: inactive
- Activity (Human alphaherpesvirus 1): inactive
- Activity (A549): inactive
- Activity (BGC-823): inactive
- Activity (MCF7): inactive
- Activity (Bel-7402): inactive
- Activity (KETR3): inactive
- Activity (HCT-8): inactive

Compound: N#CC[C@@]1(O)C(=O)Nc2ccccc21
- Activity [1]: inactive
- Activity (Human alphaherpesvirus 1): inactive
- Activity (A549): inactive
- Activity (BGC-823): inactive
- Activity (MCF7): inactive
- Activity (Bel-7402): inactive
- Activity (KETR3): inactive
- Activity (HCT-8): inactive

Compound: N#CCc1c[nH]c2ccccc12
- Activity [1]: inactive
- Activity (Human alphaherpesvirus 1): inactive
- Activity (A549): inactive
- Activity (BGC-823): inactive
- Activity (MCF7): inactive
- Activity (Bel-7402): inactive
- Activity (KETR3): inactive
- Activity (HCT-8): inactive

Compound: COC(=O)c1ccccc1NC(=O)c1c[nH]c2ccccc2c1=O
- Activity [1]: inactive
- Activity (Human alphaherpesvirus 1): inactive
- Activity (A549): inactive
- Activity (BGC-823): inactive
- Activity (MCF7): inactive
- Activity (Bel-7402): inactive
- Activity (KETR3): inactive
- Activity (HCT-8): inactive

Compound: COc1cccc2c1[C@@](O)(CC(N)=O)C(=O)N2
- Activity [1]: inactive
- Activity (Human alphaherpesvirus 1): inactive
- Activity (A549): inactive
- Activity (BGC-823): inactive
- Activity (MCF7): inactive
- Activity (Bel-7402): inactive
- Activity (KETR3): inactive
- Activity (HCT-8): inactive

Compound: COC(=O)c1cc(OC)c2c(c1-c1c(CO)cc(OC)c3c1OCO3)OCO2 [BICYCLOL]
- inhibition at 10 µM [2]: 42%

Compound: O=C1C[C@@]2(O)c3ccccc3N3C(=O)c4ccccc4N1[C@H]32
- Activity [1]: inactive
- Activity (Human alphaherpesvirus 1): inactive
- Activity (A549): inactive
- Activity (BGC-823): inactive
- Activity (MCF7): inactive
- Activity (Bel-7402): inactive
- Activity (KETR3): inactive
- Activity (HCT-8): inactive

Compound: O=C1O[C@H]([C@@H](O)CO)[C@@H](O)[C@@]1(O)Cc1c[nH]c2ccccc12
- Activity [1]: inactive
- Activity (Human alphaherpesvirus 1): inactive
- Activity (A549): inactive
- Activity (BGC-823): inactive
- Activity (MCF7): inactive
- Activity (Bel-7402): inactive
- Activity (KETR3): inactive
- Activity (HCT-8): inactive

Compound: N#CC[C@@]1(O)C(=O)Nc2cccc(O)c21
- Activity [1]: inactive
- Activity (Human alphaherpesvirus 1): inactive
- Activity (A549): inactive
- Activity (BGC-823): inactive
- Activity (MCF7): inactive
- Activity (Bel-7402): inactive
- Activity (KETR3): inactive
- Activity (HCT-8): inactive

Compound: N#CCc1c[nH]c2cc(O[C@@H]3O[C@H](CO)[C@@H](O)[C@H](O)[C@H]3O)ccc12
- Activity [1]: inactive
- Activity (Human alphaherpesvirus 1): inactive
- Activity (A549): inactive
- Activity (BGC-823): inactive
- Activity (MCF7): inactive
- Activity (Bel-7402): inactive
- Activity (KETR3): inactive
- Activity (HCT-8): inactive

Compound: O=C1/C(=C2\Nc3ccccc3C2=O)Nc2ccccc21
- Activity [1]: inactive
- Activity (Human alphaherpesvirus 1): inactive
- Activity (A549): inactive
- Activity (BGC-823): inactive
- Activity (MCF7): inactive
- Activity (Bel-7402): inactive
- Activity (KETR3): inactive
- Activity (HCT-8): inactive

Compound: O=c1cc(-c2ccc(CO)o2)c2cc(O)ccc2[nH]1
- Activity [1]: inactive
- Activity (Human alphaherpesvirus 1): inactive
- Activity (A549): inactive
- Activity (BGC-823): inactive
- Activity (MCF7): inactive
- Activity (Bel-7402): inactive
- Activity (KETR3): inactive
- Activity (HCT-8): inactive

Compound: NC(=O)C[C@@]1(O)C(=O)Nc2ccccc21
- Activity [1]: inactive
- Activity (Human alphaherpesvirus 1): inactive
- Activity (A549): inactive
- Activity (BGC-823): inactive
- Activity (MCF7): inactive
- Activity (Bel-7402): inactive
- Activity (KETR3): inactive
- Activity (HCT-8): inactive

Compound: C[C@H]1OC2=C(NC1=O)C(=O)OCC2
- Activity [1]: inactive
- Activity (Human alphaherpesvirus 1): inactive
- Activity (A549): inactive
- Activity (BGC-823): inactive
- Activity (MCF7): inactive
- Activity (Bel-7402): inactive
- Activity (KETR3): inactive
- Activity (HCT-8): inactive

Compound: O=C1CC2(O)c3ccccc3N3C(=O)c4ccccc4N1C32 (stereo not drawn)
- inhibition at 10 µM [2]: 47%

Compound: OC[C@H]1O[C@@H](Oc2c[nH]c3ccccc23)[C@H](O)[C@@H](O)[C@@H]1O
- Activity [1]: inactive
- Activity (Human alphaherpesvirus 1): inactive
- Activity (A549): inactive
- Activity (BGC-823): inactive
- Activity (MCF7): inactive
- Activity (Bel-7402): inactive
- Activity (KETR3): inactive
- Activity (HCT-8): inactive
